In paper PMC4965013, “Open Source Drug Discovery with the Malaria Box Compound Collection for Neglected Diseases and Beyond” (PLoS Pathogens, 2016):

Assays:
P. falciparum = assay: EC50 listed in S2 Table Metabolomics (used to set the concentration tested); format: cell-based; conditions: Plasmodium falciparum; EC50 used for Factor_XEC50 in metabolomics; read-out: EC50_nM
[1] = system: P. falciparum 3D7 trophozoites; assay: Metabolomic fingerprint profiling LC-MS; format: cell-based, Plasmodium falciparum; design: UDP-D-glucose / ADP-D-glucose: unit not given here; conditions: for Acetyllysine / N-acetyl-L-ornithine / N-carbamoyl-L-aspartate / NADPH / dAMP / dCMP / dTDP / dTMP / dTTP / dihydroorotate / orotate / DLH / DLS/SDL/SID / PD / PEE / PVNF / 3-phosphoglycerate / ADP-D-glucose / ATP / CDP / D-sedoheptulose-1/7-phosphate / FAD / GMP / NAD+ / NADP+ / Octoluse Bisphosphate / Pyroglutamic acid / UDP-D-glucose / UDP-D-glucuronate / UDP-N-acetyl-glucosamine / UDP / UMP / UTP / a-ketoglutarate / citrate/isocitrate / cytidine / dATP / dGMP/AMP / fumarate / glucose-1/6-phosphate / glycerate / guanine / guanosine / hypoxanthine / indole / inosine / nicotinate / ornithine / phosphoenolpyruvate / pyruvate / ribose-phosphate / sarcosine/alanine / sn-glycerol-3-phosphate / succinate/methylmalonic acid / uridine / xanthosine: S2 Table Metabolomics; for Acetyllysine: metabolite Acetyllysine; for N-acetyl-L-ornithine: metabolite N-acetyl-L-ornithine; for N-carbamoyl-L-aspartate: metabolite N-carbamoyl-L-aspartate; for NADPH: metabolite NADPH; for dAMP: metabolite dAMP; for dCMP: metabolite dCMP; for dTDP: metabolite dTDP; for dTMP: metabolite dTMP; for dTTP: metabolite dTTP; for dihydroorotate: metabolite dihydroorotate; for orotate: metabolite orotate; for DLH: peptide DLH; for DLS/SDL/SID: peptide DLS/SDL/SID; for PD: peptide PD; for PEE: peptide PEE; for PVNF: peptide PVNF; for 3-phosphoglycerate: metabolite 3-phosphoglycerate; for ADP-D-glucose: metabolite ADP-D-glucose; for ATP: metabolite ATP; for CDP: metabolite CDP; for CDP / D-sedoheptulose-1/7-phosphate / GMP / Octoluse Bisphosphate / UDP / UMP / UTP / citrate/isocitrate / dGMP/AMP / fumarate / glucose-1/6-phosphate / glycerate / guanine / guanosine / inosine / pyruvate / sarcosine/alanine / succinate/methylmalonic acid / uridine / xanthosine: change in metabolite level after compound treatment; for D-sedoheptulose-1/7-phosphate: metabolite D-sedoheptulose-1/7-phosphate; for FAD: metabolite FAD; for GMP: metabolite GMP; for NAD+: metabolite NAD+; for NADP+: metabolite NADP+; for Octoluse Bisphosphate: metabolite Octoluse Bisphosphate; for Pyroglutamic acid: metabolite Pyroglutamic acid; for UDP-D-glucose: metabolite UDP-D-glucose; for UDP-D-glucuronate: metabolite UDP-D-glucuronate; for UDP-N-acetyl-glucosamine: metabolite UDP-N-acetyl-glucosamine; for UDP: metabolite UDP; for UMP: metabolite UMP; for UTP: metabolite UTP; for a-ketoglutarate: metabolite a-ketoglutarate; for citrate/isocitrate: metabolite citrate/isocitrate; for cytidine: metabolite cytidine; for dATP: metabolite dATP; for dGMP/AMP: metabolite dGMP/AMP; for fumarate: metabolite fumarate; for glucose-1/6-phosphate: metabolite glucose-1/6-phosphate; for glycerate: metabolite glycerate; for guanine: metabolite guanine; for guanosine: metabolite guanosine; for hypoxanthine: metabolite hypoxanthine; for indole: metabolite indole; for inosine: metabolite inosine; for 2_3-Diphosphoglyceric acid / 4-phosphopantothenate / 6-phospho-D-gluconate / FMN / IMP / Pyrophosphate / Sedoheptoluse bisphosphate / cyclic-AMP / glutathione disulfide / lactate / myo-inositol: metabolite level change after treatment; for nicotinate: metabolite nicotinate; for ornithine: metabolite ornithine; for phosphoenolpyruvate: metabolite phosphoenolpyruvate; for pyruvate: metabolite pyruvate; for ribose-phosphate: metabolite ribose-phosphate; for sarcosine/alanine: metabolite sarcosine/alanine; for sn-glycerol-3-phosphate: metabolite sn-glycerol-3-phosphate; for succinate/methylmalonic acid: metabolite succinate/methylmalonic acid; for uridine: metabolite uridine; for xanthosine: metabolite xanthosine

Cc1cccc(Nc2nc(N)c3ccccc3n2)c1 [MMV019110]
EC50 (P. falciparum): 400 nM
Acetyllysine [1]: -0.7861
N-acetyl-L-ornithine [1]: -0.3066
N-carbamoyl-L-aspartate [1]: 0.8718
NADPH [1]: 1.0636
dAMP [1]: 0.1705
dCMP [1]: -1.068
dTDP [1]: -0.2853
dTMP [1]: -0.4806
dTTP [1]: -0.142
dihydroorotate [1]: 1.069
orotate [1]: -0.7263
DLH [1]: -1.2334
DLS/SDL/SID [1]: -0.8825
PD [1]: -0.6502
PEE [1]: -0.294
PVNF [1]: -0.8541
3-phosphoglycerate [1]: 0.2769
ADP-D-glucose [1]: 0.08672
ATP [1]: 0.01278
CDP [1]: -0.4413
D-sedoheptulose-1/7-phosphate [1]: -0.5631
FAD [1]: -0.04154
GMP [1]: 0.0758
NAD+ [1]: -0.03841
NADP+ [1]: 0.1589
Octoluse Bisphosphate [1]: -0.09051
Pyroglutamic acid [1]: -0.4571
UDP-D-glucose [1]: -0.005349
UDP-D-glucuronate [1]: 0.1448
UDP-N-acetyl-glucosamine [1]: -0.09963
UDP [1]: -0.5337
UMP [1]: -0.1391
UTP [1]: -0.1864
a-ketoglutarate [1]: -0.9521
citrate/isocitrate [1]: -0.8432
cytidine [1]: 0.1554
dATP [1]: -0.04411
dGMP/AMP [1]: 0.02273
fumarate [1]: -0.3633
glucose-1/6-phosphate [1]: -0.2644
glycerate [1]: -1.224
guanine [1]: -1.026
guanosine [1]: -2.158
hypoxanthine [1]: -0.00849
indole [1]: -0.09763
inosine [1]: -0.6039
2_3-Diphosphoglyceric acid [1]: -0.1372
4-phosphopantothenate [1]: -0.5707
6-phospho-D-gluconate [1]: -0.1735
FMN [1]: 0.07582
IMP [1]: -0.3382
Pyrophosphate [1]: -0.02007
Sedoheptoluse bisphosphate [1]: -0.1834
cyclic-AMP [1]: -0.2741
glutathione disulfide [1]: -0.5227
lactate [1]: -1.008
myo-inositol [1]: -1.363
nicotinate [1]: -1.278
ornithine [1]: 0.0513
phosphoenolpyruvate [1]: 0.03081
pyruvate [1]: -1.488
ribose-phosphate [1]: -0.08015
sarcosine/alanine [1]: -0.6413
sn-glycerol-3-phosphate [1]: -0.02952
succinate/methylmalonic acid [1]: -0.4318
uridine [1]: -1.131
xanthosine [1]: -0.9126

COc1ccc(-n2ccnc2SCC(=O)Nc2cc(C)ccc2C)c(OC)c1 [MMV019258]
EC50 (P. falciparum): 170 nM
Acetyllysine [1]: -0.6249
N-acetyl-L-ornithine [1]: -0.6242
N-carbamoyl-L-aspartate [1]: 3.802
NADPH [1]: -0.4851
dAMP [1]: -1.834
dCMP [1]: 0.07117
dTDP [1]: -1.878
dTMP [1]: -1.688
dTTP [1]: -1.338
dihydroorotate [1]: 5.204
orotate [1]: -0.1277
DLH [1]: -0.04693
DLS/SDL/SID [1]: -0.2869
PD [1]: -0.04264
PEE [1]: -0.4454
PVNF [1]: -2.048
3-phosphoglycerate [1]: 0.6242
ADP-D-glucose [1]: 0.3573
ATP [1]: 0.2564
CDP [1]: -1.841
D-sedoheptulose-1/7-phosphate [1]: -1.029
FAD [1]: 0.0674
GMP [1]: 1.676
NAD+ [1]: 0.1657
NADP+ [1]: 0.1196
Octoluse Bisphosphate [1]: -0.03706
Pyroglutamic acid [1]: 0.9996
UDP-D-glucose [1]: 0.07144
UDP-D-glucuronate [1]: -0.1808
UDP-N-acetyl-glucosamine [1]: -0.2701
UDP [1]: -2.466
UMP [1]: -0.6353
UTP [1]: -1.944
a-ketoglutarate [1]: 0.866
citrate/isocitrate [1]: 0.4908
cytidine [1]: 0.5413
dATP [1]: 0.5274
dGMP/AMP [1]: -0.3361
fumarate [1]: 0.3957
glucose-1/6-phosphate [1]: 0.221
glycerate [1]: 0.7468
guanine [1]: 0.4637
guanosine [1]: 0.7901
hypoxanthine [1]: 1.05
indole [1]: 0.5756
inosine [1]: 0.8159
2_3-Diphosphoglyceric acid [1]: -0.06901
4-phosphopantothenate [1]: -0.2542
6-phospho-D-gluconate [1]: 0.0357
FMN [1]: -0.006391
IMP [1]: 0.3439
Pyrophosphate [1]: -0.1345
Sedoheptoluse bisphosphate [1]: -0.0261
cyclic-AMP [1]: -0.1381
glutathione disulfide [1]: -0.07054
lactate [1]: 0.415
myo-inositol [1]: -0.225
nicotinate [1]: 0.9606
ornithine [1]: 0.46
phosphoenolpyruvate [1]: 0.911
pyruvate [1]: 0.8605
ribose-phosphate [1]: 0.2278
sarcosine/alanine [1]: 0.199
sn-glycerol-3-phosphate [1]: 0.01743
succinate/methylmalonic acid [1]: 0.09628
uridine [1]: 0.32
xanthosine [1]: 1.135
